# Results: US12257184B2, “Ocular device and drug delivery system, with case” (priority 2019, dated 2025)
# Assay: Ex vivo release of therapeutic agent from insert into phosphate buffer, UV scanning spectrophotometer
# Type: physicochemical
# Conditions: drug 20%, phosphate buffer pH 7, 37° C.
# Procedure: Ocular Daily Wear is defined by FDA Class II CFR 866.5925 products currently indicated for ocular use and sclera tissue contact.
# To begin testing, a UV scanning spectrophotometer concentration calibration curve for the therapeutic agent was established. The insert was prepared to the specification in the particular Table, and the time duration sample plan for measurement was determined. The insert was weighed to establish T=0. The insert was immersed in phosphate buffer of a fixed constant volume. A mean body temperature of 37° C. (e.g., from about 36.5° C. to about 37.5° C.) was simulated for the identified time interval. The insert was transferred and immersed at the end of each time period into a new phosphate buffer test container. The simulated mean 37° C.-body temperature was continued to next time interval. The UV scanning spectrophotometer data was generated for each time interval sample. The release rate was calculated versus time for the therapeutic agent, and graphical plots of the data were generated.
# [1] = Table 8, Rod, 2 Component: EVA (40% vinyl acetate) 80%, no PEO
# [2] = Table 8, In Device, 3 Component: EVA (40% vinyl acetate) 40%, PEO 40%
# [3] = Table 9, In Device, 3 Component: EVA (40% vinyl acetate) 40%, PEO 40%
Structure (SMILES),1 Day % Release [1],1 Day % Release [2],2 Day % Release [2],"1 Day % Release (Table 8, In Device, 3 Component: EVA (40% vinyl acetate) 40%, PEO 40%, listed as dexamethasone phosphate)",1 Day % Release [3],2 Day % Release [3]
CC(=O)OCC(=O)[C@@]1(O)[C@H](C)C[C@H]2[C@@H]3CCC4=CC(=O)C=C[C@]4(C)[C@@]3(F)[C@@H](O)C[C@@]21C [Dexamethasone 21 Acetate],1.89%,–,–,–,–,–
C[C@@H]1C[C@H]2[C@@H]3CCC4=CC(=O)C=C[C@]4(C)[C@@]3(F)[C@@H](O)C[C@]2(C)[C@@]1(O)C(=O)COP(=O)(O)O [Dexamethasone Phosphate],3.39%,82.7%,85.3%,82.7%,–,–
"CN(C)CC/C=C1/c2ccccc2COc2ccc(CC(=O)O)cc21 [Olopatadine FB, Olopatadine]",–,–,–,–,35%,43%
